Tested on: 422866-222-R5-J1-PDC complex spheroid viability
Assay: Anticancer human tumor 422866-222-R5-J1-PDC patient-derived pancreatic adenocarcinoma cell line growth inhibition [POLQ]
Conditions: for IC50: curve of first compound; for viability, T/C: stronger effect = lower value
Experimental: Multicellular complex tumor spheroid response to Polymerase (POL) inhibitors (novobiocin, ART-558, RP6685) in combination with a variety of drugs and investigational agents in selected tumor cell lines
The POL inhibitors (novobiocin, ART-558, and RP6685) were evaluated both individually and in combination with standard of care and investigational anticancer small molecules within a complex spheroid model of solid tumors. . Complex spheroids include a stromal component modeled by human endothelial cells (HUVEC) and fibroblasts modeled by human mesenchymal stem cells (MSCs). The concentration ranges selected for each drug and investigational agent were based upon clinically achievable concentrations if the clinical Cmax of the agent was known.
Compounds. The drugs and investigational agents: novobiocin (NSC847541), ART-558 (NSC835418), RP-6685 (NSC848927), peposertib (NSC802822), ceralasertib (NSC780249), elimusertib (NSC800525), camonsertib (NSC841442), AZD-1390 (NSC803789), olaparib (NSC753686), talazoparib (NSC767125), rucaparib (NSC756644), sotorasib (NSC818433), MRTX-1133 (NSC836407), SN-38 (NSC673596), topotecan (NSC609699), epotoside (NSC141540), doxorubicin (NSC123127), gemcitabine (NSC613327), 5-fluorouracil (NSC19893), paclitaxel (NSC125973), vemurafenib (NSC761431), MSA-2 (NSC828583), SN-011 (NSC837082), adavosertib (NSC754352), prexasertib (NSC758257), carboplatin (NSC241240) and oxaliplatin (NSC266046), were obtained from the National Cancer Institute (NCI) Developmental Therapeutics Program Chemical Repository (21). The FDA-approved anticancer drug set is available from the Developmental Therapeutics Program at https://dtp.cancer.gov/organization/dscb/obtaining/. […] The stock solutions were prepared in dimethyl sulfoxide (DMSO, Sigma-Aldrich, St. Louis, MO, cat. D2650), except for the platinum compounds which were prepared in saline (Quality Biological, Gaithersburg, MD, cat. 114-055-101), at 800-fold the tested concentration and stored at -70 degrees C prior to their use. All drugs and investigational agents were tested over a range starting from a high concentration at or near the clinical Cmax and decreasing in half-log increments. If the clinical Cmax for an agent had not been determined, the highest concentration tested was 10 microM, except for SN-38, which was tested at a high concentration of 1 microM.
Cell Culture. All cells were maintained in an incubator at 37 degrees C and 5% CO2 with 95% humidity. The PDC lines were cultured according to standard operating procedures established by the NCI PDMR (https://pdmr.cancer.gov). Table 3 of the manuscript, lists the cell lines along with the number of the three cell types plated to form the mct-spheroids and media for tumor cell growth. After thawing, all PDC lines, except 997537-175-T-J1-PDC and 415267-285-R-J2-PDC, were cultured in Matrigel-coated flasks prepared with a working solution of 1X Ham's F-12 nutrient mix, without supplementation (Thermo Fisher Scientific, cat. 11765054), 100 U/mL penicillin-streptomycin (Thermo Fisher Scientific, cat. 15140122), and 2.5% Matrigel (Corning Inc., Corning, NY, cat. 354248) for the first three passages. The two PDC lines 997537-175-T-J1-PDC and 415267-285-R-J2-PDC were cultured on uncoated flasks. The 857933-349-R-J2-PDC line was cultured in 6C/Colon 1B media containing advanced DMEM/F-12 (Thermo Fisher Scientific, cat. 12634028), 10 mM HEPES (Thermo Fisher Scientific, cat. 15630080), 1X GlutaMAX supplement (Thermo Fisher Scientific, cat. 35050061), 0.1 mg/mL primocin (InvivoGen, San Diego, CA, cat. ant-pm-2), 10% defined fetal bovine serum, heat inactivated (HyClone Laboratories Inc., Logan, UT, cat. SH30070.03HI), 50% L-WRN conditioned media (ATCC, cat. CRL-3276), 1.25 mM N-Acetyl-L-cysteine (Sigma-Aldrich, cat. A9165), 10 mM nicotinamide (Sigma-Aldrich, cat. N0636), 1X B-27 supplement (Thermo Fisher Scientific, cat. 17504044), 1X N-2 supplement (Thermo Fisher Scientific, cat. […]

[1] = second compound 0.0316 µM, first compound 0.0316 µM
[2] = second compound 0.0316 µM, first compound 0.1 µM
[3] = second compound 0.1 µM, first compound 0.0316 µM
[4] = second compound 0.1 µM, first compound 0.1 µM
[5] = second compound 0.316 µM, first compound 0.0316 µM
[6] = second compound 0.316 µM, first compound 0.1 µM
[7] = second compound 1 µM, first compound 0.0316 µM
[8] = second compound 1 µM, first compound 0.1 µM
[9] = second compound 3.16 µM, first compound 0.0316 µM
[10] = second compound 3.16 µM, first compound 0.1 µM
[11] = second compound 10 µM, first compound 0.0316 µM
[12] = second compound 10 µM, first compound 0.1 µM
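Note: spheroids exposed to compounds for one week before readout.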
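Throughout, for viability, T/C: percent of DMSO vehicle wells luminescence so 100% = untreated viability.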

Cn1ncnc1[C@H]1c2n[nH]c(=O)c3cc(F)cc(c23)N[C@@H]1c1ccc(F)cc1 + Cc1cccc(N(C)C(=O)C2C(O)CCN2c2nc(C)cc(C(F)(F)F)c2C#N)c1
IC50 (second compound 0.0316 µM): > 100 nM
IC50 (second compound 0.1 µM): > 100 nM
IC50 (second compound 0.316 µM): > 100 nM
IC50 (second compound 1 µM): > 100 nM
IC50 (second compound 3.16 µM): > 100 nM
IC50 (second compound 10 µM): > 100 nM
viability, T/C (second compound 0.0316 µM, first compound 0.000316 µM): 93.3%
viability, T/C (second compound 0.0316 µM, first compound 0.001 µM): 97.3%
viability, T/C (second compound 0.0316 µM, first compound 0.00316 µM): 93.7%
viability, T/C (second compound 0.0316 µM, first compound 0.01 µM): 89%
viability, T/C [1]: 76.5%
viability, T/C [2]: 82.1%
viability, T/C (second compound 0.1 µM, first compound 0.000316 µM): 116%
viability, T/C (second compound 0.1 µM, first compound 0.001 µM): 95.2%
viability, T/C (second compound 0.1 µM, first compound 0.00316 µM): 90%
viability, T/C (second compound 0.1 µM, first compound 0.01 µM): 93.2%
viability, T/C [3]: 81.8%
viability, T/C [4]: 65.9%
viability, T/C (second compound 0.316 µM, first compound 0.000316 µM): 108%
viability, T/C (second compound 0.316 µM, first compound 0.001 µM): 97.3%
viability, T/C (second compound 0.316 µM, first compound 0.00316 µM): 90.6%
viability, T/C (second compound 0.316 µM, first compound 0.01 µM): 88.4%
viability, T/C [5]: 81.4%
viability, T/C [6]: 83.1%
viability, T/C (second compound 1 µM, first compound 0.000316 µM): 93.9%
viability, T/C (second compound 1 µM, first compound 0.001 µM): 90.2%
viability, T/C (second compound 1 µM, first compound 0.00316 µM): 93.6%
viability, T/C (second compound 1 µM, first compound 0.01 µM): 89%
viability, T/C [7]: 79.3%
viability, T/C [8]: 77.2%
viability, T/C (second compound 3.16 µM, first compound 0.000316 µM): 95.6%
viability, T/C (second compound 3.16 µM, first compound 0.001 µM): 101%
viability, T/C (second compound 3.16 µM, first compound 0.00316 µM): 94.2%
viability, T/C (second compound 3.16 µM, first compound 0.01 µM): 77.3%
viability, T/C [9]: 87.4%
viability, T/C [10]: 91.9%
viability, T/C (second compound 10 µM, first compound 0.000316 µM): 95.1%
viability, T/C (second compound 10 µM, first compound 0.001 µM): 97.7%
viability, T/C (second compound 10 µM, first compound 0.00316 µM): 102%
viability, T/C (second compound 10 µM, first compound 0.01 µM): 72.5%
viability, T/C [11]: 82.9%
viability, T/C [12]: 83.2%

COc1cccc2c1C(=O)c1c(O)c3c(c(O)c1C2=O)CC(O)(C(=O)CO)CC3OC1CC(N)C(O)C(C)O1 (centres undefined) + Cc1cccc(N(C)C(=O)C2C(O)CCN2c2nc(C)cc(C(F)(F)F)c2C#N)c1
IC50 (second compound 0.0316 µM): 160 nM
IC50 (second compound 0.1 µM): 114 nM
IC50 (second compound 0.316 µM): 152 nM
IC50 (second compound 1 µM): 202 nM
IC50 (second compound 3.16 µM): 204 nM
IC50 (second compound 10 µM): 133 nM
viability, T/C [1]: 67.2%
viability, T/C [2]: 56.3%
viability, T/C (second compound 0.0316 µM, first compound 0.316 µM): 41.4%
viability, T/C (second compound 0.0316 µM, first compound 1 µM): 24.5%
viability, T/C (second compound 0.0316 µM, first compound 3.16 µM): 32.9%
viability, T/C (second compound 0.0316 µM, first compound 10 µM): 30.1%
viability, T/C [3]: 66.6%
viability, T/C [4]: 51.3%
viability, T/C (second compound 0.1 µM, first compound 0.316 µM): 37%
viability, T/C (second compound 0.1 µM, first compound 1 µM): 22.6%
viability, T/C (second compound 0.1 µM, first compound 3.16 µM): 27.4%
viability, T/C (second compound 0.1 µM, first compound 10 µM): 34.4%
viability, T/C [5]: 57.6%
viability, T/C [6]: 56.7%
viability, T/C (second compound 0.316 µM, first compound 0.316 µM): 37.3%
viability, T/C (second compound 0.316 µM, first compound 1 µM): 25.6%
viability, T/C (second compound 0.316 µM, first compound 3.16 µM): 26.2%
viability, T/C (second compound 0.316 µM, first compound 10 µM): 36.4%
viability, T/C [7]: 65.5%
viability, T/C [8]: 60.8%
viability, T/C (second compound 1 µM, first compound 0.316 µM): 42.4%
viability, T/C (second compound 1 µM, first compound 1 µM): 24.5%
viability, T/C (second compound 1 µM, first compound 3.16 µM): 28.6%
viability, T/C (second compound 1 µM, first compound 10 µM): 36.6%
viability, T/C [9]: 62.3%
viability, T/C [10]: 58.5%
viability, T/C (second compound 3.16 µM, first compound 0.316 µM): 44.3%
viability, T/C (second compound 3.16 µM, first compound 1 µM): 30.1%
viability, T/C (second compound 3.16 µM, first compound 3.16 µM): 30.2%
viability, T/C (second compound 3.16 µM, first compound 10 µM): 36.2%
viability, T/C [11]: 68.2%
viability, T/C [12]: 53%
viability, T/C (second compound 10 µM, first compound 0.316 µM): 40.5%
viability, T/C (second compound 10 µM, first compound 1 µM): 25.9%
viability, T/C (second compound 10 µM, first compound 3.16 µM): 24.1%
viability, T/C (second compound 10 µM, first compound 10 µM): 40.2%

Source: PubChem BioAssay AID1963844 (Molecular Pharmacology Branch, DTP, NCI, 2024)
